Laboratory results reported in ChEMBL document CHEMBL5365521, “Discovery of the Potent and Selective Inhaled Janus Kinase 1 Inhibitor AZD4604 and Its Preclinical Characterization” (J Med Chem, 2023).
≈ marks a conversion by molar mass, not a printed value. Calls of active or inactive are those of the source. No cut-off for these calls is given here.

Columns and labels:
[1] = Solubility in phosphate buffer at pH 7.4; format: physicochemical
[2] = Inhibition of JAK/STAT signaling pathway in human U-937 cells assessed as inhibition of IL-13 stimulated STAT6 phosphorylation; format: cell-based
[3] = Inhibition of JAK/STAT signaling pathway in human U-937 cells assessed as inhibition of IL-4 stimulated STAT6 phosphorylation; format: cell-based
[4] = biological target: T1, Tyrosine-protein kinase JAK1 (Homo sapiens, UniProt P23458); test: Inhibition of N-terminal GST-tagged human recombinant JAK1 (866 to 1154 residues) expressed in insect cells using FITC-C6-KKHTDDGYMPMSPGVA-NH peptide as substrate incubated for 10 mins measured after 90 mins in presence of ATP by caliper mobility shift assay
T1 sequence (P23458 whole entry, the tested form may be a part): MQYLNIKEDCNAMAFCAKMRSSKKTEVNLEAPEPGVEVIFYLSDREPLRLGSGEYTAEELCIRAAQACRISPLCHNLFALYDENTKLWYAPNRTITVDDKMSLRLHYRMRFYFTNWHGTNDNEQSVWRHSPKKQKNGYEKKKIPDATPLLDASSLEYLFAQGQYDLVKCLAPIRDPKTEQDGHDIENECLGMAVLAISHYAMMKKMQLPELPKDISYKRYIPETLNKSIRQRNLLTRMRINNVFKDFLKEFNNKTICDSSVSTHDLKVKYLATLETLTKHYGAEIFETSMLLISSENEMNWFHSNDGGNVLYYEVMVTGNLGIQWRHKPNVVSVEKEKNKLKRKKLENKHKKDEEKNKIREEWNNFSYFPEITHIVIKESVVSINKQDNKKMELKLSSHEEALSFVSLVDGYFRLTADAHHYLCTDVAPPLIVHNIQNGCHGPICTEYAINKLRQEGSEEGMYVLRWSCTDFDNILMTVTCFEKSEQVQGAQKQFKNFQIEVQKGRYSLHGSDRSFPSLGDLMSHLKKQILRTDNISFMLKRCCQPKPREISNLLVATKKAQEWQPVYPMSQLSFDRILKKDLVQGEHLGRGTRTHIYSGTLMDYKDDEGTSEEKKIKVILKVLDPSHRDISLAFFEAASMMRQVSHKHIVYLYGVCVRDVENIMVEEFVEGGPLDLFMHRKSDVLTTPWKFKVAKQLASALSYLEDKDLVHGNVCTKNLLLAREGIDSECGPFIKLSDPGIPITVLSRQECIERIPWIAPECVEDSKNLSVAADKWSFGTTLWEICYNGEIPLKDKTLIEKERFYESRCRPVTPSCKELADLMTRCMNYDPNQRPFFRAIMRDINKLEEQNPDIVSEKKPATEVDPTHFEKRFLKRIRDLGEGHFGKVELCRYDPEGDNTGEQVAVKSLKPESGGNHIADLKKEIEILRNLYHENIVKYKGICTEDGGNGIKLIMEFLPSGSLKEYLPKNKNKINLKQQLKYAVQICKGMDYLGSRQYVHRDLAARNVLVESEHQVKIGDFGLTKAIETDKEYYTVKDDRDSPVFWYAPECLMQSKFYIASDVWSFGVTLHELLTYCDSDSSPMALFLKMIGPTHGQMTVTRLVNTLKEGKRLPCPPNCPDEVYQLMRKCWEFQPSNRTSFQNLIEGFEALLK

[5] = Distribution coefficient between 1-Octanol and aqueous phosphate buffer, logD of the compound at pH 7.4 by shake-flask method; format: physicochemical; details: 1-octanol/aqueous phosphate buffer, read-out: logD
[6] = Plasma protein binding in human assessed as free fraction; format: ADME, cell-free
[7] = Toxicity in human naive Th2 cell assessed as reduction in cell viability at 1 to 10000 nM; format: cell-based; details: 10 µM, dose 1-10000 nM
CD14-positive cell = test: (§1) Inhibition of JAK/STAT signaling pathway in human CD14-positive cell monocytes isolated from human PBMC assessed as inhibition of IL-13 stimulated STAT6 phosphorylation preincubated for 20 to 60 mins followed by IL-13 stimulation measured after 15 mins by flow cytometry analysis; format: cell-based; details: time 35-75 min
[8] = Inhibition of JAK/STAT signaling pathway in human CD4+ T cell assessed as inhibition of IL-4 stimulated STAT6 phosphorylation preincubated for 20 to 60 mins followed by IL-4 stimulation measured after 15 mins by flow cytometry analysis; format: cell-based
[9] = Toxicity in human memory-derived Th17 cells assessed as reduction in cell viability at 1 to 10000 nM; format: cell-based; details: th17, 10 µM, dose 1-10000 nM
Th17 = test: Inhibition of human memory-derived Th17 cell differentiation assessed as decrease in IL-17 production measured after 5 days by MSD assay; format: functional, cell-based; details: time 5.0 day
Th2 cell [10] = test: Inhibition of human naive Th2 cell differentiation assessed as decrease in IL-13 production measured after 5 days by MSD assay; format: functional, cell-based; details: time 5.0 day
CD4+ T cell = test: Antiinflammatory activity in human CD4+ T cell assessed as reduction in CD25 expression measured after 5 days by eFluor780 staining based flow cytometry analysis; format: functional; details: dose 1-10000 nM, time 5.0 day
[11] = biological target: T1, Tyrosine-protein kinase JAK1; test: Inhibition of JAK1 in human CD14-positive cell monocytes isolated from human PBMC assessed as reduction in mature dendritic phenotype by measuring CD14 expression level at 100 nM measured after 5 days by CD14 APC staining based flow cytometry analysis; details: time 5.0 day
Th2 cell [12] = test: Inhibition of human naive Th2 cell differentiation assessed as decrease in IL-4 production measured after 5 days by MSD assay; format: functional, cell-based; details: dose 1-10000 nM, time 5.0 day
[13] = Toxicity in human naive Th1 cell assessed as reduction in cell viability at 1 to 10000 nM; format: cell-based; details: 10 µM, dose 1-10000 nM
Th2 cell [14] = test: Inhibition of human naive Th2 cell differentiation assessed as decrease in IL-5 production measured after 5 days by MSD assay; format: functional, cell-based; details: time 5.0 day
[15] = biological target: T1, Tyrosine-protein kinase JAK1; test: Inhibition of JAK1 in human CD14-positive cell monocytes isolated from human PBMC assessed as reduction in mature dendritic phenotype by measuring CD11c expression level at 100 nM measured after 5 days by CD11c PE-CF594 staining based flow cytometry analysis; details: time 5.0 day
[16] = Toxicity in human CD4+ T cell assessed as reduction in cell viability measured after 5 days by eFluor780 staining based flow cytometry analysis; details: 120 h, dose 1-10000 nM, time 5 day
Th1 cell = test: Inhibition of human naive Th1 cell differentiation assessed as decrease in IFNg production measured after 5 days by MSD assay; format: functional, cell-based; details: dose 1-10000 nM, time 5.0 day
[17] = Thermodynamic solubility of the compound in phosphate buffer at pH 7.4 measured after 24 hrs by HPLC-MS analysis; format: physicochemical; details: read-out: Therm_solubility
[18] = AUC(0 to 24 hrs) in rat at 0.020 micromol/kg, IT; format: ADME; set-up: dose 0.02 µmol/kg, route it; details: in vivo, 0.02 µmol/kg
[19] = Thermodynamic solubility of the compound in phosphate buffer at pH 6.5 measured after 24 hrs by HPLC-MS analysis; format: physicochemical; details: read-out: Therm_solubility
[20] = Apparent permeability of compound across apical to basolateral side in human Caco-2 cells at pH 7.4; format: ADME, cell-based; details: Caco-2, pH 7.4
[21] = Drug uptake in lung of rat at 0.020 micromol/kg, IT; format: ADME, tissue-based; details: in vivo, other, dose 0.02 µmol/kg
[22] = as §1; format: cell-based
[23] = Inhibition of JAK/STAT signaling pathway in human CD14-positive cell monocytes isolated from human PBMC assessed as inhibition of IL-4 stimulated STAT6 phosphorylation preincubated for 20 to 60 mins followed by IL-4 stimulation measured after 15 mins by flow cytometry analysis; format: cell-based
[24] = biological target: Tyrosine-protein kinase JAK2 (Homo sapiens, UniProt O60674); test: Inhibition of N-terminal GST-tagged human recombinant JAK2 (831 to 1132 residues) expressed in insect cells using 5FAM-GEEPLYWSFPAKKK-NH2 peptide as substrate incubated for 10 mins measured after 90 mins in presence of ATP by caliper mobility shift assay
Sequence of Tyrosine-protein kinase JAK2 (O60674 whole entry, the tested form may be a part): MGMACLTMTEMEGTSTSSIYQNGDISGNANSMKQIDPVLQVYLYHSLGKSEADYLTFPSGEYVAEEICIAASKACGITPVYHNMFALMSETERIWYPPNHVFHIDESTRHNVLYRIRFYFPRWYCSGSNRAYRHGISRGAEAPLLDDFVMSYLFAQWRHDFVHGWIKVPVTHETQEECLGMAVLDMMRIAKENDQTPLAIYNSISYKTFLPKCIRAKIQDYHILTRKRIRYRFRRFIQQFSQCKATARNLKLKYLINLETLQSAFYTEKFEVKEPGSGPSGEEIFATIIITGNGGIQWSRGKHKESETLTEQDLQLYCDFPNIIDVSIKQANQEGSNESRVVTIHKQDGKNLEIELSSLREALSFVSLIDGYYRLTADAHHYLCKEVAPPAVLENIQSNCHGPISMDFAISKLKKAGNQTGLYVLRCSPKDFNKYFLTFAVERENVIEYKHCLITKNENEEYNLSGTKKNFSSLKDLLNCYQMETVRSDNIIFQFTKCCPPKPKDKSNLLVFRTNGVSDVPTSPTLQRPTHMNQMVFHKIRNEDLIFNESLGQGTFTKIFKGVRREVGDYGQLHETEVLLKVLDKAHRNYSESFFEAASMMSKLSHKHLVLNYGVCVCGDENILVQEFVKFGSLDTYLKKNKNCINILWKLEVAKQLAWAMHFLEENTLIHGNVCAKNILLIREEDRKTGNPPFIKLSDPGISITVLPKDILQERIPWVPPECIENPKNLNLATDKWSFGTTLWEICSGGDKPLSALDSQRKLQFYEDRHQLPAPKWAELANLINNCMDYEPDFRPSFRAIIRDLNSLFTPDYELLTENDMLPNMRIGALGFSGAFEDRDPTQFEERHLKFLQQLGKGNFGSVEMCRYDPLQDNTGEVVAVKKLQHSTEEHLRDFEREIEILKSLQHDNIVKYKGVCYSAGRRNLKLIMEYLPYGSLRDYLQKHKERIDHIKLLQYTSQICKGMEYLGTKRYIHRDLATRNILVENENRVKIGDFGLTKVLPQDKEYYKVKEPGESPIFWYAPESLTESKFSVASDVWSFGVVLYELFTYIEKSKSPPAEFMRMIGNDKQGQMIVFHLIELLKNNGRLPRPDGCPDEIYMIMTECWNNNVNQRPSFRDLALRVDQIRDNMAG

[25] = biological target: T2, Tyrosine-protein kinase JAK3 (Homo sapiens, UniProt P52333); test: Inhibition of N-terminal GST-tagged human recombinant JAK3 (781 to 1124 residues) expressed in insect cells using 5FAM-GEEPLYWSFPAKKK-NH2 peptide as substrate incubated for 10 mins measured after 90 mins in presence of ATP by caliper mobility shift assay
T2 sequence (P52333 whole entry): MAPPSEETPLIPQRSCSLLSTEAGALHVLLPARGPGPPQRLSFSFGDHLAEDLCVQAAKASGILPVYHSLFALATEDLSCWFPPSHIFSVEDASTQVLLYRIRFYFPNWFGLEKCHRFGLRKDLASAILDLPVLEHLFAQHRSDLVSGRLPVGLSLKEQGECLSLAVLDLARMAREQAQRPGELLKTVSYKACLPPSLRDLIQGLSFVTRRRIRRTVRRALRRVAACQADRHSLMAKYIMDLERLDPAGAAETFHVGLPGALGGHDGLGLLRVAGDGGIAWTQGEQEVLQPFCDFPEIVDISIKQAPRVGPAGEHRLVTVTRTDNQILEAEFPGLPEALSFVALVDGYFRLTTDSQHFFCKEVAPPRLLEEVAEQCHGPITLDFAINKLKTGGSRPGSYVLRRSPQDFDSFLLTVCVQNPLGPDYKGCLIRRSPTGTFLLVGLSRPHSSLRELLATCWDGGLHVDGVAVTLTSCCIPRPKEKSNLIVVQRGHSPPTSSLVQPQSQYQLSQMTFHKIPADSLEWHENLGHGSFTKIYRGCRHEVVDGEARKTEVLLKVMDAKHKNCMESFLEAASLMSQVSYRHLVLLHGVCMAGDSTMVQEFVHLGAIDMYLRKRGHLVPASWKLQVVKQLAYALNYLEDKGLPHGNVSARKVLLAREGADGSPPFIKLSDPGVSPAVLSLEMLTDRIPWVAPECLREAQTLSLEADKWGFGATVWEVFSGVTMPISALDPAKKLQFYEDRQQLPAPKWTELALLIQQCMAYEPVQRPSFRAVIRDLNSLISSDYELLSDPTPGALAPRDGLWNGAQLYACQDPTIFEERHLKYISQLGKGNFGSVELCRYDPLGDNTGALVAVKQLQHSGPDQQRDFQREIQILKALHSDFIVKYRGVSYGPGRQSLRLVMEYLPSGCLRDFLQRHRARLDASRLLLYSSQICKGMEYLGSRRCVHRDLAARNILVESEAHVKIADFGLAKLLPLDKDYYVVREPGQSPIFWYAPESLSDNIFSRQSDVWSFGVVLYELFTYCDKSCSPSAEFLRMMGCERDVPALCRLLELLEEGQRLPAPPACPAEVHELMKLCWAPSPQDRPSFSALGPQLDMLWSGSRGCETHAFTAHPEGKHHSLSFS

[26] = Efflux ratio of apparent permeability across apical to basolateral side in human Caco-2 cells at pH 7.4; format: ADME, cell-based; details: Caco-2, pH 7.4
[27] = Volume of distribution at steady state in Han Wistar rat at 0.5 mg/kg, iv; format: ADME, organism-based; details: in vivo, read-out: Vdss

Compound	solubility [1] [µM]	IC50 [2] [µM]	IC50 [3] [µM]	IC50 [4] [µM]	logD [5]	fraction unbound [6]	AUC(0-t) [18] [µM·h]	Papp A→B [20] [×10⁻⁶ cm/s]	Drug uptake [21]	also measured
CC[C@H](C(=O)Nc1cccc2c(-c3nc(Nc4cccc(S(C)(=O)=O)c4F)ncc3F)c[nH]c12)N1CCN(C)CC1	9 (≈ 5.25 µg/mL)	0.043	0.027	≤ 0.003	3.3	0.05				
C=CC(=O)Nc1cc(-c2ncnc3[nH]cc(C(=O)OCC)c23)ccc1C										Activity [7]: Non-Toxic; inhibition (CD14-positive cell): inactive; IC50 [8]: 0.134 µM; Activity [9]: Non-Toxic; inhibition (Th17): Dose-Dependent Effect; inhibition (Th2 cell [10]): Dose-Dependent Effect; Activity (CD4+ T cell): Dose-Dependent Effect; Activity [11]: Active; inhibition (Th2 cell [12]): Dose-Dependent Effect; Activity [13]: Non-Toxic; inhibition (Th2 cell [14]): Dose-Dependent Effect; Activity [15]: Active; Activity [16]: Dose-Dependent Effect; inhibition (Th1 cell): Dose-Dependent Effect
COC[C@H](C(=O)Nc1cccc2c(-c3nc(Nc4cccc(S(C)(=O)=O)c4F)ncc3C)c[nH]c12)N1CCN(C)CC1	38 (≈ 22.6 µg/mL)	0.018	0.013		2.4	0.09	0.7	2.3	Active	solubility thermodynamic at 24 h [17]: 40 µM (≈ 23.8 µg/mL); solubility thermodynamic at 24 h [19]: 289 µM (≈ 172 µg/mL)
C[C@@H]1CCN(C(=O)CC#N)C[C@@H]1N(C)c1ncnc2[nH]ccc12 [TOFACITINIB]										Activity [7]: Non-Toxic; IC50 [22]: 0.057 µM; IC50 [8]: 0.053 µM; Activity [9]: Non-Toxic; IC50 [23]: 0.065 µM; inhibition (Th17): Dose-Dependent Effect; inhibition (Th2 cell [10]): Dose-Dependent Effect; Activity (CD4+ T cell): Dose-Dependent Effect; inhibition (Th2 cell [12]): Dose-Dependent Effect; Activity [13]: Non-Toxic; inhibition (Th2 cell [14]): Dose-Dependent Effect; Activity [16]: Dose-Dependent Effect; inhibition (Th1 cell): Dose-Dependent Effect
C[C@H](C(=O)Nc1cccc2c(-c3nc(Nc4cccc(S(C)(=O)=O)c4F)ncc3F)c[nH]c12)N1CCN(C)CC1	14 (≈ 7.97 µg/mL)	0.056	0.042	0.02	2.7	0.06				IC50 [24]: 17.5 µM; IC50 [25]: > 30 µM
Cc1cnc(Nc2cccc(S(C)(=O)=O)c2F)nc1-c1c[nH]c2c(NC(=O)[C@@H](C)N3CCN(C)CC3)cccc12	15 (≈ 8.49 µg/mL)	0.032	0.022	≤ 0.004	2.5	0.06	1.5	4.5	Active	solubility thermodynamic at 24 h [17]: 15 µM (≈ 8.49 µg/mL); efflux ratio [26]: 4.9; Vd [27]: 9.2 L/kg
CC[C@H](C(=O)Nc1cccc2c(-c3nc(Nc4cccc(S(C)(=O)=O)c4F)ncc3C)c[nH]c12)N1CCN(C)CC1	11 (≈ 6.38 µg/mL)	0.022	0.015		2.8	0.05	1.6	2.7	Active	efflux ratio [26]: 3.6; solubility thermodynamic at 24 h [19]: 104 µM (≈ 60.3 µg/mL); Vd [27]: 9 L/kg
